Measured values taken from PubChem BioAssay (NCI).
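48-hour exposure; five concentrations; linearly interpolated endpoints. At the TGI there is no net growth.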

What was measured:
Test in all cases: growth of human tumour cells (NCI), 48 h
A498 renal = tested on: A498 renal
ACHN renal = tested on: ACHN renal
CAKI-1 renal = tested on: CAKI-1 renal
HOP-92 NSCLC = tested on: HOP-92 NSCLC
HT29 colon = tested on: HT29 colon
KM20L2 colon = tested on: KM20L2 colon
MOLT-4 leukemia = tested on: MOLT-4 leukemia
NCI-H226 lung = tested on: NCI-H226 lung
NCI-H23 lung = tested on: NCI-H23 lung
SK-MEL-2 melanoma = tested on: SK-MEL-2 melanoma
SNB-19 CNS = tested on: SNB-19 CNS
SW-620 colon = tested on: SW-620 colon
U251 CNS = tested on: U251 CNS
XF 498 CNS = tested on: XF 498 CNS
A549 NSCLC = tested on: A549 NSCLC
DLD-1 colon = tested on: DLD-1 colon
HCT-116 colon = tested on: HCT-116 colon
HCC-2998 colon = tested on: HCC-2998 colon
NCI/ADR-RES ovarian = tested on: NCI/ADR-RES ovarian
OVCAR-5 ovarian = tested on: OVCAR-5 ovarian

Structure (SMILES)	TGI (A498 renal) [µM]	TGI (ACHN renal) [µM]	TGI (CAKI-1 renal) [µM]	TGI (HOP-92 NSCLC) [µM]	TGI (HT29 colon) [µM]	TGI (KM20L2 colon) [µM]	TGI (MOLT-4 leukemia) [µM]	TGI (NCI-H226 lung) [µM]	TGI (NCI-H23 lung) [µM]	TGI (SK-MEL-2 melanoma) [µM]	TGI (SNB-19 CNS) [µM]	TGI (SW-620 colon) [µM]	TGI (U251 CNS) [µM]	TGI (XF 498 CNS) [µM]	TGI (A549 NSCLC) [µM]	TGI (DLD-1 colon) [µM]	TGI (HCT-116 colon) [µM]	TGI (HCC-2998 colon) [µM]	TGI (NCI/ADR-RES ovarian) [µM]	TGI (OVCAR-5 ovarian) [µM]
COc1ccc(/C(Cl)=C(\C=O)c2ccc(OC)c(OC)c2)cc1	98.8	> 100	> 100	53.4	> 100	> 100	> 100	> 100	> 100	76.6	> 100	> 100	> 100	56.1						
O=C1NP23(OCCO2)Oc2ccccc2C3(C(F)(F)F)O1 (centres undefined)		> 100			> 100		> 100	> 100	> 100	> 100	> 100		> 100	> 100	> 100	> 100	> 100			
COc1cc(N=Nc2cccc(S(=O)(=O)O)c2)ccc1N=Nc1ccc(/C=C/c2ccc(-n3on3-c3ccc(/C=C/c4ccc(N=Nc5ccc(N=Nc6cccc(S(=O)(=O)O)c6)cc5OC)cc4S(=O)(=O)O)c(S(=O)(=O)O)c3)cc2S(=O)(=O)O)c(S(=O)(=O)O)c1	> 100			> 100	> 100	> 100	> 100	> 100	> 100	> 100	> 100	> 100	> 100	> 100	> 100	> 100	> 100	> 100	> 100	> 100
N#CC(OC1OC(COC2OC(CO)C(O)C(O)C2O)C(O)C(O)C1O)c1ccccc1 (centres undefined)	> 225		> 225	> 225	> 225	> 225	> 225	> 225	> 225	> 225	> 225	> 225	> 225	> 225	> 225	> 225	> 225	> 225	> 225	> 225
CCOP(=O)(COCCn1ncc(=O)[nH]c1=O)OCC	> 100	> 100	> 100	> 100	> 100		> 100	> 100	> 100	> 100	> 100	> 100	> 100		> 100			> 100	> 100	> 100
